Test results taken from patent publication US11208412B2 (DAEGU-GYEONGBUK MEDICAL INNOVATION FOUNDATION, priority 2017, dated 2021).

Tests used:
Assay in all cases: Kinase selectivity, DiscoverX scanMAX Kinase assay panel (% control)
Format in all cases: binding
[1] = biological target: T1, kinases of the scanMAX Kinase assay panel (Homo sapiens, UniProt O00329); details: PIK3CD; 1 uM
T1 construct: purchased DiscoverX Co. (contract measurement) scanMAX Kinase assay panel
T1 sequence (O00329 1-1044): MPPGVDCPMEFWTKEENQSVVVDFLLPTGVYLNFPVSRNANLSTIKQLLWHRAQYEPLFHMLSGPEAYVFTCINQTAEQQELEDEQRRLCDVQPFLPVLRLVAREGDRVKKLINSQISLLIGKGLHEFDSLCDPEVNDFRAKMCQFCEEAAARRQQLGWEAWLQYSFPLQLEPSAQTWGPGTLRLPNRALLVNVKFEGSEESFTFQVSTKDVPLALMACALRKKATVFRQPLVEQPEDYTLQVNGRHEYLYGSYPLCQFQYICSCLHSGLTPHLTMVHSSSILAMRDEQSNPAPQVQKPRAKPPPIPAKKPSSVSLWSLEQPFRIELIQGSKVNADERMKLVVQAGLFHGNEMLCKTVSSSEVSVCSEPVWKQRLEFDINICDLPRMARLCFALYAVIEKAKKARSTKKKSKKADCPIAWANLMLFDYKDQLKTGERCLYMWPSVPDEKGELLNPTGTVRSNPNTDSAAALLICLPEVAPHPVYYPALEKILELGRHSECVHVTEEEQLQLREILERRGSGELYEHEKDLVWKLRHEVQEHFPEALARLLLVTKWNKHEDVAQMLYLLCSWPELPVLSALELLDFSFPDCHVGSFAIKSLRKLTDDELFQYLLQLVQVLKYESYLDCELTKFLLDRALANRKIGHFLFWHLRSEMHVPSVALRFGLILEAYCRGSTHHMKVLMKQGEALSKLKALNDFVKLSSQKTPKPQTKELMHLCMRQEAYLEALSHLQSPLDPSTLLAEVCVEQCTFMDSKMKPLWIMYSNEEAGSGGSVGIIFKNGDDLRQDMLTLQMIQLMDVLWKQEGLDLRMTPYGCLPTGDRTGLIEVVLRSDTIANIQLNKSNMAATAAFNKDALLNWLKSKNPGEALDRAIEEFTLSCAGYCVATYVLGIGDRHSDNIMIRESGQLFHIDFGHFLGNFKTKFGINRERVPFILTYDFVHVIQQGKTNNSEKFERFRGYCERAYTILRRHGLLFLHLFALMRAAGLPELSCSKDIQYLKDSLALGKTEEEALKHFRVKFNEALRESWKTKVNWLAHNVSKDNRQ
How it was run: (§1)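 Compounds tested at 1 uM against the scanMAX kinase panel. Signal expressed as % control = (compound − positive control)/(DMSO negative control − positive control) × 100, where positive control = 0% and DMSO = 100%; below 35% counted as activity on that kinase.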

[2] = biological target: T2, kinases of the scanMAX Kinase assay panel (Homo sapiens, UniProt P09769); details: FGR; 1 uM
T2 construct: purchased DiscoverX Co. (contract measurement) scanMAX Kinase assay panel
How it was run: as §1

[3] = biological target: T3, kinases of the scanMAX Kinase assay panel (Homo sapiens, UniProt Q13557); details: CAMK2D; 1 uM
T3 construct: purchased DiscoverX Co. (contract measurement) scanMAX Kinase assay panel
How it was run: as §1

[4] = biological target: T4, kinases of the scanMAX Kinase assay panel (Homo sapiens, UniProt Q56UN5); details: kinase YSK4; 1 uM in DMSO
T4 construct: purchased DiscoverX Co. (contract measurement) scanMAX Kinase assay panel
T4 sequence (Q56UN5 1-1328): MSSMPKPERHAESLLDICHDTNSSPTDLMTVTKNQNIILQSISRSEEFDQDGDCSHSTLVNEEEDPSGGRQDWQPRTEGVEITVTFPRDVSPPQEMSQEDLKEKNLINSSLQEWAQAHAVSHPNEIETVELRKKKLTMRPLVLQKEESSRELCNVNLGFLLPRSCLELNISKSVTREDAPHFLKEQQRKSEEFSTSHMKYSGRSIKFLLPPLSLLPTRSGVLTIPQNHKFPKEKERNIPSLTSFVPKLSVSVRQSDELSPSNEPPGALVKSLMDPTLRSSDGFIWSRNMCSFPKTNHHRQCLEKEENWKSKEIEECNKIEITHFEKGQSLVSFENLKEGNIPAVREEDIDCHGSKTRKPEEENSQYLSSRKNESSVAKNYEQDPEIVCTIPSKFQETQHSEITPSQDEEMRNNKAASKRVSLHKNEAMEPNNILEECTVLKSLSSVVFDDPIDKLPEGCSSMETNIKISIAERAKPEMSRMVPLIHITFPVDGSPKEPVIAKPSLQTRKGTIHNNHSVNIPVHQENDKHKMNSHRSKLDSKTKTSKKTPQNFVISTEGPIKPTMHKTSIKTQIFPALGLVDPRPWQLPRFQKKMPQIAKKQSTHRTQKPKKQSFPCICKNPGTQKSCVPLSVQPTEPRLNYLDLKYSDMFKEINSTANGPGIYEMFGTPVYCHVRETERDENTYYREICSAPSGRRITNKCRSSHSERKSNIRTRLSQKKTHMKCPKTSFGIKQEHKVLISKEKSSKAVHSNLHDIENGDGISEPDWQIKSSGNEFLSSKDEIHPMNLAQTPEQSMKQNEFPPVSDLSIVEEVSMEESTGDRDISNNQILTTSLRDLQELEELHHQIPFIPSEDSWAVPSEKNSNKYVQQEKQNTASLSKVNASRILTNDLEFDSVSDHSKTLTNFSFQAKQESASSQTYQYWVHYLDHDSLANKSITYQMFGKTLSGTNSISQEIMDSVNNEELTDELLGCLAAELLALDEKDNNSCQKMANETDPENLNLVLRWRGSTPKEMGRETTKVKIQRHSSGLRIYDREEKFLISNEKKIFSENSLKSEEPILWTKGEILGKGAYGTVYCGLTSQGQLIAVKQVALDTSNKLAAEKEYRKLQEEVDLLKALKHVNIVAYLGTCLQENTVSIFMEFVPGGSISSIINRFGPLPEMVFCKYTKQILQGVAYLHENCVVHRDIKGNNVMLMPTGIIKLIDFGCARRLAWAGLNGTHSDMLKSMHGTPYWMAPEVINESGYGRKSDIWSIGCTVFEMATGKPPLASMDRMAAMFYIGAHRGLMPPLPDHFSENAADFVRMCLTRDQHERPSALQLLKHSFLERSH
How it was run: as §1

[5] = biological target: T5, kinases of the scanMAX Kinase assay panel (Homo sapiens, UniProt Q8IY84); details: NIM1; 1 uM
T5 construct: purchased DiscoverX Co. (contract measurement) scanMAX Kinase assay panel
How it was run: as §1

T2 sequence (P09769 whole entry): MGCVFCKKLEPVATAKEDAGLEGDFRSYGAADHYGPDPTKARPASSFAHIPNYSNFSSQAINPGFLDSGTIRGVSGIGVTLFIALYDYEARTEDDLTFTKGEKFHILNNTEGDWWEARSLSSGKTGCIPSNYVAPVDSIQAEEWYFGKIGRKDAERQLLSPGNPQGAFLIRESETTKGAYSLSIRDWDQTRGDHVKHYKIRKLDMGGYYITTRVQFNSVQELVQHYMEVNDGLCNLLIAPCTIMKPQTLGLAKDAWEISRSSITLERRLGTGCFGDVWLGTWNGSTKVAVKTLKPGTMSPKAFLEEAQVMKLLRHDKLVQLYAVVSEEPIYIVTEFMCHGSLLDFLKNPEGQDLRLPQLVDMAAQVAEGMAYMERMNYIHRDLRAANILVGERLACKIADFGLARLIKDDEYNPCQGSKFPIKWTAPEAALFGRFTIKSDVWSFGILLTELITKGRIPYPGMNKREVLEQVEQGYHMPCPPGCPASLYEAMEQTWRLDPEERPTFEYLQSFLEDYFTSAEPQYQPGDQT
T5 sequence (Q8IY84 whole entry): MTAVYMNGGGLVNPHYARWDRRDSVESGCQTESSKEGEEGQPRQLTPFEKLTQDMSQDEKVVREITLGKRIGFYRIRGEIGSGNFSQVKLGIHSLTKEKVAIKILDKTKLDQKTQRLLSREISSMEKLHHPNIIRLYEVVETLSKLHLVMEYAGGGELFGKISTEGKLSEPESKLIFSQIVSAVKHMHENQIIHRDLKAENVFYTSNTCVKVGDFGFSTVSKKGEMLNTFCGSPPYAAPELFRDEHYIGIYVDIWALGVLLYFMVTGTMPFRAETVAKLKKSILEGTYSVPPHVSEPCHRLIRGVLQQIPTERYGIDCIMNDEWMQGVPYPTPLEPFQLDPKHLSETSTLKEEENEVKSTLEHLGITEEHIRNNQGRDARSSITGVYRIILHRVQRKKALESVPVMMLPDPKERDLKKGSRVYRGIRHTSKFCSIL
T3 sequence (Q13557 whole entry): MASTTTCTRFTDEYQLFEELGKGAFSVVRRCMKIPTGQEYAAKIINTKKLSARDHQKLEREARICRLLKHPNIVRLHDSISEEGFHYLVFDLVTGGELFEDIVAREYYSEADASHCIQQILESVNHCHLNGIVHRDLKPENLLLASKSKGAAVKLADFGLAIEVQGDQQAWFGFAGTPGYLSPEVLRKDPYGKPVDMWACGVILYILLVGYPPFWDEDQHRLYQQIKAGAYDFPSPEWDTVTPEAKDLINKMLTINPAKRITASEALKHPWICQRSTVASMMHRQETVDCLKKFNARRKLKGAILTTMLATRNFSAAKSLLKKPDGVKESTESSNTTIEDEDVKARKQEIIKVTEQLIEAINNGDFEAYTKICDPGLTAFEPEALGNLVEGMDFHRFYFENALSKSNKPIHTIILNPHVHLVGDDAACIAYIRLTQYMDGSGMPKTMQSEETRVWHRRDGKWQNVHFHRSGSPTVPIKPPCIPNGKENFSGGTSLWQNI

| SMILES | remaining binding at 1 µM [1] [%] | remaining binding at 1 µM [2] [%] | remaining binding at 1 µM [3] [%] | remaining binding at 1 µM [4] [%] | remaining binding at 1 µM [5] [%] |
| --- | --- | --- | --- | --- | --- |
| CNc1nc(Nc2ccc(C(=O)N3CCOCC3)cc2OC)nc2[nH]cc(C#N)c12 [Example 1, 2-((2-methoxy-4-(morpholine-4-carbonyl)phenyl)amino)-4-(methylamino)-7H-pyrrolo[2,3-d]pyrimidine-5-carbonitrile] | 99 | 94 | 82 | 12 | 77 |
| CC1(Nc2nc(Nc3cnn([C@H]4CCN(C5COC5)C[C@@H]4F)c3Cl)nc3[nH]cc(C#N)c23)CC1 [Example 52, 2-((5-chloro-1-((3S,4S)-3-fluoro-1-(oxetane-3-yl)piperidine-4-yl)-1H-pyrazole-4-yl)amino)((1-methylcyclopropyl)amino)-7H-pyrrolo[2,3-d]pyrimidine-5-carbonitrile] | 9.4 | 10 | 65 | 0 | 100 |
| CCNc1nc(Nc2ccc(C(=O)N3CCC(N4CCOCC4)CC3)cc2OC)nc2[nH]cc(C(F)(F)F)c12 [Example 104, (4-((4-(ethylamino)-5-(trifluoromethyl)-7H-pyrrolo[2,3-d]pyrimidine-2-yl)amino)-3-methoxyphenyl)(4-morpholinopiperidine-1-yl)methanone] | 78 | 100 | 66 | 94 | 100 |
